Reference: patent US20150051262A1, “NMDA RECEPTOR MODULATORS AND USES THEREOF” (Northwestern University, priority 2011, published 2015)
Read-outs that look alike come from different tables or passages of the source. Residues, ends and D or L forms follow the SMILES beside them.

Columns and labels:
[1] = target: NMDA receptor (Rattus norvegicus, UniProt P35439); test: [^3H] MK-801 binding assay; details: for Emax: read-out: Efficacy (% Increase in [^3H] MK-801 Binding)
[2] = Kinetic aqueous solubility (pION method); assay type: physicochemical; details: pH 7.4, conc. tested 200 μM with 1% DMSO, 16 h incubation
[3] = Metabolic stability in liver microsomes, rat; assay type: in vitro ADME; details: Rat (M) microsomes, 1 μM
Description: (§1) Metabolic stability was assessed in liver microsomes as well as in hepatocytes with few compounds.
(§2) Procedure for microsomal stability: • Species: Rat and human • Test concentration: 1 μM (n=2) • Protein concentration: 0.125 mg/mL • Time points: 0, 5, 15, 30 and 60 minutes • Controls: Minus NADPH and buffer • Analysis: Parent compound monitoring LC-MS/MS (Peak area ratios)

[4] = Metabolic stability in liver microsomes, human; assay type: in vitro ADME; details: Human (M) microsomes, 1 μM
Description: as §1, §2

[5] = test system: MDCK (Madin-Darby Canine Kidney Cells); test: in vitro; details: concentration 5 μM; for Papp (10^−6 cm/sec): HBSS pH 7.4
Description: Procedure. Permeability of test compounds was assessed using MDCK (Madin-Darby Canine Kidney Cells) using the below parameters. • Test concentration: 5 μM (n=3) • Buffer: HBSS pH 7.4 • Time points: 0, 15, 30, 60 and 90 min • Analysis: Parent compound monitoring using LC-MS/MS

[6] = Metabolic stability in hepatocytes, rat; assay type: in vitro ADME; details: Rat (H) hepatocytes, 10 μM
Description: as §1
(§3) Procedure for hepatocyte stability: • Stock preparation: DMSO • Buffer: Krebs Henseleit Buffer • Total Incubation volume: […] • Cell density: 1 million cells/mL • Test concentration: 10 μM with 0.5% DMSO (n=2) • Time points: 0 and 60 min • Analysis: LC-MS/MS

[7] = Metabolic stability in hepatocytes, human; assay type: in vitro ADME; details: Human (H) hepatocytes, 10 μM
Description: as §1, §3

[8] = test system: Schaffer collateral-evoked NMDA EPSCs in CA1 pyramidal neurons; test: Long-term potentiation (LTP) assay procedure 2; assay type: cell-based, Sprague-Dawley rats; details: 1 μM, FIG. 8, P<0.05
Description: Assays were conducted as described in Zhang et al. (2008). Sprague-Dawley rats (12-18 days old; Taconic Farms) were deeply anesthetized with isoflurane and decapitated. Brains was removed rapidly, submerged in ice-cold artificial cerebrospinal fluid (ACSF, 2-4° C.), which contained (in mM): 124 NaCl, 4 KCl, 2 MgSO4, 2 CaC12, 1.25 NaH2PO4, 26 NaHCO3, 10 glucose; at pH 7.4, gassed continuously with 95% O2/5% CO2). Brains were hemisected, the frontal lobes cut off, and individual hemispheres glued using cyanoacrylate adhesive onto a stage immersed in ice-cold ACSF gassed continuously with 95% O2/5% CO2 during slicing. […] Bath application of test compounds (1 μM) was applied 30 min prior to application of Schaffer collateral stimulus trains to elicit LTP. LTP was induced by stimulation of Schaffer collateral axons with four high frequency theta burst stimulus trains of 10×100 Hz/5 pulse bursts each, applied at an inter-burst interval of 200 ms. Each train was 2 s in duration, and trains were applied 15 s apart.

[9] = test system: floating behavior; test: Porsolt test procedure 2; assay type: in vivo, Sprague Dawley rats; details: 1 hr post-dosing
Description: The antidepressant-like effects of test compounds were examined with the rat Porsolt test as described in Page et al. (1999) and Burgdorf et al. (2009). Male Sprague Dawley rats (2-3 month old) were used in this study. Animals were dosed with test compounds (0.3 mg/kg IV) or sterile saline vehicle (1 ml/kg IV tail vein) 1 hr before a single test session. […] Water was changed after every other animal. […] CM-6A, CM-7A, CM-8A, and CM-9A were tested in the Porsolt test. CM-5A was not tested in the Porsolt test.
Animals received a single 15 min Porsolt habituation session on the day before the first 5 min Porsolt test. N=6 per group. *P<0.05 Fisher's PLSD post hoc test vs. vehicle.

[10] = test system: floating behavior; test: Porsolt test procedure 2; assay type: in vivo, Sprague Dawley rats; details: single dose (0.3 mg/kg IV), 24 hrs post-dosing, FIG. 11C
[11] = single dose 0.3 mg/kg IV, FIG. 11A
[12] = single dose (0.3 mg/kg IV), FIG. 11B

For C[C@@H](O)[C@H](NC(=O)[C@@H]1CCCN1C(=O)[C@@H]1CCCN1C(=O)[C@@H](N)CO)C(N)=O [CM-1, (S)-N-((2S,3R)-1-amino-3-hydroxy-1-oxobutan-2-yl)-1-((S)-1-((S)-2-amino-3-hydroxypropanoyl)pyrrolidine-2-carbonyl)pyrrolidine-2-carboxamide] (H-SPPT-NH2), the EC50 [1] was 0.005 nM.
In the case of C[C@@H](O)[C@H](N)C(=O)N1CCC[C@H]1C(=O)N1CCC[C@H]1C(=O)N[C@@H](CO)C(N)=O [CM-2, (S)-N-((S)-1-amino-3-hydroxy-1-oxopropan-2-yl)-1-((S)-1-((2S,3R)-2-amino-3-hydroxybutanoyl)pyrrolidine-2-carbonyl) pyrrolidine-2-carboxamide] (H-TPPS-NH2), the “Efficacy (% Increase in [^3H] MK-801 Binding)” value ([1]; best-fit top value, 50 μM glutamate) is reported as 24% and the EC50 ([1]; rat forebrain membranes, 50 μM glutamate, read-out: Potency (EC50)) is reported as 0.006 nM.
NC(=O)[C@H](CO)NC(=O)[C@@H]1CCCN1C(=O)[C@@H]1CCCN1C(=O)[C@@H](N)CO [CM-3, (S)-N-((S)-1-amino-3-hydroxy-1-oxopropan-2-yl)-1-((S)-1-((S)-2-amino-3-hydroxy-propanoyl)-pyrrolidine-2-carbonyl)-pyrrolidine-2-carboxamide] (H-SPPS-NH2) gave an EC50 [1] of 0.016 nM.
With Cc1ccc(C[C@@]2(C(=O)N[C@H](C(N)=O)[C@@H](C)O)CCCN2C(=O)[C@@H]2CCCN2C(=O)[C@@H](N)[C@@H](C)O)cc1 [CM-5A, (R)-N-((2S,3R)-1-amino-3-hydroxy-1-oxobutan-2-yl)-1-((S)-1-((2S,3R)-2-amino-3-hydroxybutanoyl)pyrrolidine-2-carbonyl)-2-(4-methylbenzyl) pyrrolidine-2-carboxamide] the “Mean Solubility (N = 3) at pH” value [2] was >200, the “% Remaining at 60 minutes” value [3] was 95% and the “Half-life” value [3] was >1 h. The “Stability Class” value [3] was “Stable (% Remaining >90%)”, the “% Remaining at 60 minutes” value [4] was 86% and the “Half-life” value [4] was >1 h. The “Stability Class” value [4] was “Moderate (% Remaining 70-90%)”, the Permeability classification [5] was “Low (≦3 × 10^−6 cm/sec)” and the Recovery [5] was 100.
Work on CC(O)C(N)C(=O)N1CCCC1C(=O)N1CCCC1(Cc1ccc(F)cc1)C(=O)NC(C(N)=O)C(C)O (stereo not drawn) [CM-6] yielded an Emax [1] of 12%.
For C[C@@H](O)[C@H](N)C(=O)N1CCC[C@H]1C(=O)N1CCC[C@@]1(Cc1ccc(C(F)(F)F)cc1)C(=O)N[C@H](C(N)=O)[C@@H](C)O [CM-7A, (R)-N-((2S,3R)-1-amino-3-hydroxy-1-oxobutan-2-yl)-1-((S)-1-((2S,3R)-2-amino-3-hydroxybutanoyl)pyrrolidine-2-carbonyl)-2-(4-(trifluoromethyl)benzyl) pyrrolidine-2-carboxamide], the “% Remaining at 60 minutes” value [6] was 76%, the “Half-life” value [6] was >1 h and the “Stability Class” value [6] was “Moderate (% Remaining 70-90%)”. The “% Remaining at 60 minutes” value [7] was 92%, the “Half-life” value [7] was >1 h and the “Stability Class” value [7] was “Stable (% Remaining >90%)”. For the same molecule, the Permeability classification [5] was “Low (≦3 × 10^−6 cm/sec)”, the Recovery [5] was 68 and the “Papp (10^−6 cm/sec)” value [5] was 0.11 ± 0.0 10^−6 cm/sec. For the same molecule, the “long-term potentiation after high frequency stimulation (fEPSP slope)” value (“long-term potentiation … (fEPSP slope)” for short) [8] was “increased long-term potentiation”, the “floating time in the Porsolt test” value [9, 11] was “produced an antidepressant-like effect” and the “floating time in the Porsolt test” value [9, 12] was “produced an antidepressant-like effect”. For the same molecule, the “floating time in the Porsolt test” value [10] was “produced an antidepressant-like effect”.
For CC(O)C(N)C(=O)N1CCCC1C(=O)N1CCCC1(Cc1ccc(C(F)(F)F)cc1)C(=O)NC(C(N)=O)C(C)O (stereo not drawn) [CM-7], the EC50 [1] was 10.6 nM and the Emax [1] was 13%.
For Cc1cccc(C[C@@]2(C(=O)N[C@H](C(N)=O)[C@@H](C)O)CCCN2C(=O)[C@@H]2CCCN2C(=O)[C@@H](N)[C@@H](C)O)c1 [CM-8A, (R)-N-((2S,3R)-1-amino-3-hydroxy-1-oxobutan-2-yl)-1-((S)-1-((2S,3R)-2-amino-3-hydroxybutanoyl)pyrrolidine-2-carbonyl)-2-(3-methylbenzyl) pyrrolidine-2-carboxamide], the “Mean Solubility (N = 3) at pH” value [2] was >200, the “% Remaining at 60 minutes” value [3] was 91% and the “Half-life” value [3] was >1 h. For the same molecule, the “Stability Class” value [3] was “Stable (% Remaining >90%)”, the “% Remaining at 60 minutes” value [4] was 75% and the “Half-life” value [4] was >1 h. The “Stability Class” value [4] was “Moderate (% Remaining 70-90%)”, the Permeability classification [5] was “Low (≦3 × 10^−6 cm/sec)” and the Recovery [5] was 83. The “Papp (10^−6 cm/sec)” value [5] was 0.14 ± 0.01 10^−6 cm/sec, the “long-term potentiation … (fEPSP slope)” value [8] was “increased long-term potentiation” and the “floating time in the Porsolt test” value [9, 11] was “produced an antidepressant-like effect”. The “floating time in the Porsolt test” value [9, 12] was “produced an antidepressant-like effect” and the “floating time in the Porsolt test” value [10] was “produced an antidepressant-like effect”.
Cc1cccc(CC2(C(=O)NC(C(N)=O)C(C)O)CCCN2C(=O)C2CCCN2C(=O)C(N)C(C)O)c1 (stereo not drawn) [CM-8] showed an EC50 [1] of 0.006 nM and an Emax [1] of 16%.
For C[C@@H](O)[C@H](N)C(=O)N1CCC[C@H]1C(=O)N1CCC[C@@]1(Cc1cccc(F)c1)C(=O)N[C@H](C(N)=O)[C@@H](C)O [CM-9A, (R)-N-((2S,3R)-1-amino-3-hydroxy-1-oxobutan-2-yl)-1-((S)-1-((2S,3R)-2-amino-3-hydroxybutanoyl)pyrrolidine-2-carbonyl)-2-(3-fluorobenzyl) pyrrolidine-2-carboxamide], the “Mean Solubility (N = 3) at pH” value [2] was 148 ± 42, the “% Remaining at 60 minutes” value [3] was 100% and the “Half-life” value [3] was >1 h. The “Stability Class” value [3] was “Stable (% Remaining >90%)”, the “% Remaining at 60 minutes” value [4] was 69% and the “Half-life” value [4] was >1 h. The “Stability Class” value [4] was “Unstable (% Remaining <70%)”, the Permeability classification [5] was “Low (≦3 × 10^−6 cm/sec)” and the Recovery [5] was 100. The “long-term potentiation … (fEPSP slope)” value [8] was “increased long-term potentiation”, the “floating time in the Porsolt test” value [9, 11] was “produced an antidepressant-like effect” and the “floating time in the Porsolt test” value [9, 12] was “produced an antidepressant-like effect”. For the same molecule, the “floating time in the Porsolt test” value [10] was “produced an antidepressant-like effect”.
Molecule CC(O)C(N)C(=O)N1CCCC1C(=O)N1CCCC1(Cc1cccc(F)c1)C(=O)NC(C(N)=O)C(C)O (stereo not drawn) [CM-9] has an EC50 [1] of 0.007 nM and an Emax [1] of 15%.
Work on C[C@@H](O)[C@H](NC(=O)C1(Cc2ccccc2)CCCN1C(=O)[C@@H]1CCCN1C(=O)[C@@H](N)CO)C(N)=O (stereo partly drawn) [CM-10, N-((2S,3R)-1-amino-3-hydroxy-1-oxobutan-2-yl)-1-((S)-1-((S)-2-amino-3-hydroxypropanoyl)pyrrolidine-2-carbonyl)-2-benzylpyrrolidine-2-carboxamide] yielded an Emax [1] of 16%.
For COc1ccc(CC2(C(=O)N[C@H](C(N)=O)[C@@H](C)O)CCCN2C(=O)[C@@H]2CCCN2C(=O)[C@@H](N)[C@@H](C)O)cc1 (stereo partly drawn) [CM-11], the EC50 [1] was 0.013 nM and the Emax [1] was 9%.
For CC(O)C(N)C(=O)N1CCCC1C(=O)N1CCCC1(Cc1cc(Br)cc(Br)c1)C(=O)NC(C(N)=O)C(C)O (stereo not drawn) [CM-12], the EC50 [1] was 2.21 nM and the Emax [1] was 13%.
For COc1cccc(CC2(C(=O)NC(C(N)=O)C(C)O)CCCN2C(=O)C2CCCN2C(=O)C(N)C(C)O)c1 (stereo not drawn) [CM-13], the Emax [1] was 10%.
In the case of COc1cc(CC2(C(=O)NC(C(N)=O)C(C)O)CCCN2C(=O)C2CCCN2C(=O)C(N)C(C)O)cc(OC)c1OC (stereo not drawn) [CM-14], the EC50 [1] is reported as 0.443 nM and the Emax [1] is reported as 8%.
In the case of CC/C(=C(/CC)c1ccc(O)cc1)c1ccc(O)cc1 [DES, reference compound], the “Mean Solubility (N = 3) at pH” value [2] is reported as 2.6 ± 2.1.
